Measured values from the supplement of paper PMC10307832.

Assays:
Assay in all cases: relative viability (nuclei count vs DMSO), 5 days (fraction); higher = more cells survive
Cediranib + Crizotinib = compound: COc1cc2c(Oc3ccc4[nH]c(C)cc4c3F)ncnc2cc1OCCCN1CCCC1 [Cediranib] + C[C@@H](Oc1cc(-c2cnn(C3CCNCC3)c2)cnc1N)c1c(Cl)ccc(F)c1Cl [Crizotinib] (partner 1 µM)
Procedure, shortened: (§1)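 Relative viability equals treated-well nuclei counts divided by vehicle-well nuclei counts. Counts came from 4× images of lung cancer cell lines grown in 1536-well plates for 5 days after pin-tool dosing on the day after seeding. Dosing used one drug alone or a fixed anchor-drug dose plus five library-drug doses (not always all listed) in √10 steps, and values are medians of duplicate plates.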

Cediranib + Navitoclax = compound: COc1cc2c(Oc3ccc4[nH]c(C)cc4c3F)ncnc2cc1OCCCN1CCCC1 [Cediranib] + CC1(C)CCC(c2ccc(Cl)cc2)=C(CN2CCN(c3ccc(C(=O)NS(=O)(=O)c4ccc(N[C@H](CCN5CCOCC5)CSc5ccccc5)c(S(=O)(=O)C(F)(F)F)c4)cc3)CC2)C1 [Navitoclax] (partner 0.5 µM)
Procedure, shortened: as §1

Decitabine + Trametinib = compound: Nc1ncn([C@H]2C[C@H](O)[C@@H](CO)O2)c(=O)n1 [Decitabine] + CC(=O)Nc1cccc(-n2c(=O)n(C3CC3)c(=O)c3c(Nc4ccc(I)cc4F)n(C)c(=O)c(C)c32)c1 [Trametinib] (partner 0.02 µM)
Procedure, shortened: as §1

Cediranib + Foretinib = compound: COc1cc2c(Oc3ccc4[nH]c(C)cc4c3F)ncnc2cc1OCCCN1CCCC1 [Cediranib] + COc1cc2c(Oc3ccc(NC(=O)C4(C(=O)Nc5ccc(F)cc5)CC4)cc3F)ccnc2cc1OCCCN1CCOCC1 [Foretinib] (partner 0.25 µM)
Procedure, shortened: as §1

Cell Line: 201T
- relative viability (Cediranib + Crizotinib; first compound 0.04 µM): 1.05
- relative viability (Cediranib + Crizotinib; first compound 0.1265 µM): 1.18
- relative viability (Cediranib + Crizotinib; first compound 0.4 µM): 0.989
- relative viability (Cediranib + Crizotinib; first compound 1.265 µM): 1.01
- relative viability (Cediranib + Crizotinib; first compound 4 µM): 1.01
- relative viability (Cediranib + Navitoclax; first compound 0.04 µM): 1.25
- relative viability (Cediranib + Navitoclax; first compound 0.1265 µM): 1.28
- relative viability (Cediranib + Navitoclax; first compound 0.4 µM): 1.15
- relative viability (Cediranib + Navitoclax; first compound 1.265 µM): 1.2
- relative viability (Cediranib + Navitoclax; first compound 4 µM): 1.21
- relative viability (Decitabine + Trametinib; first compound 0.04 µM): 0.739
- relative viability (Decitabine + Trametinib; first compound 0.1265 µM): 0.721
- relative viability (Decitabine + Trametinib; first compound 0.4 µM): 0.773
- relative viability (Decitabine + Trametinib; first compound 4 µM): 0.708
- relative viability (Cediranib + Foretinib; first compound 0.04 µM): 1.28
- relative viability (Cediranib + Foretinib; first compound 0.1265 µM): 1.57
- relative viability (Cediranib + Foretinib; first compound 0.4 µM): 1.03
- relative viability (Cediranib + Foretinib; first compound 1.265 µM): 1.02
- relative viability (Cediranib + Foretinib; first compound 4 µM): 0.754

Cell Line: A549
- relative viability (Cediranib + Crizotinib; first compound 0.04 µM): 0.805
- relative viability (Cediranib + Crizotinib; first compound 0.1265 µM): 0.768
- relative viability (Cediranib + Crizotinib; first compound 0.4 µM): 0.679
- relative viability (Cediranib + Crizotinib; first compound 1.265 µM): 0.773
- relative viability (Cediranib + Crizotinib; first compound 4 µM): 0.605
- relative viability (Cediranib + Navitoclax; first compound 0.04 µM): 1.29
- relative viability (Cediranib + Navitoclax; first compound 0.1265 µM): 1.34
- relative viability (Cediranib + Navitoclax; first compound 0.4 µM): 1.23
- relative viability (Cediranib + Navitoclax; first compound 1.265 µM): 1.25
- relative viability (Cediranib + Navitoclax; first compound 4 µM): 1.24
- relative viability (Cediranib + Foretinib; first compound 0.04 µM): 0.903
- relative viability (Cediranib + Foretinib; first compound 0.1265 µM): 1.07
- relative viability (Cediranib + Foretinib; first compound 0.4 µM): 0.858
- relative viability (Cediranib + Foretinib; first compound 1.265 µM): 0.975
- relative viability (Cediranib + Foretinib; first compound 4 µM): 0.899

Cell Line: A-427
- relative viability (Cediranib + Crizotinib; first compound 0.04 µM): 0.946
- relative viability (Cediranib + Crizotinib; first compound 0.4 µM): 0.829
- relative viability (Cediranib + Crizotinib; first compound 1.265 µM): 0.866
- relative viability (Cediranib + Crizotinib; first compound 4 µM): 0.884
- relative viability (Cediranib + Navitoclax; first compound 0.04 µM): 0.903
- relative viability (Cediranib + Navitoclax; first compound 0.4 µM): 0.909
- relative viability (Cediranib + Navitoclax; first compound 1.265 µM): 0.875
- relative viability (Cediranib + Navitoclax; first compound 4 µM): 0.94
- relative viability (Decitabine + Trametinib; first compound 0.04 µM): 0.594
- relative viability (Decitabine + Trametinib; first compound 0.1265 µM): 0.677
- relative viability (Decitabine + Trametinib; first compound 0.4 µM): 0.461
- relative viability (Decitabine + Trametinib; first compound 1.265 µM): 0.394
- relative viability (Decitabine + Trametinib; first compound 4 µM): 0.401
- relative viability (Cediranib + Foretinib; first compound 0.04 µM): 1.12
- relative viability (Cediranib + Foretinib; first compound 0.4 µM): 0.948
- relative viability (Cediranib + Foretinib; first compound 1.265 µM): 0.925
- relative viability (Cediranib + Foretinib; first compound 4 µM): 0.942

Cell Line: ABC-1
- relative viability (Cediranib + Crizotinib; first compound 0.04 µM): 1.39
- relative viability (Cediranib + Crizotinib; first compound 0.1265 µM): 1.17
- relative viability (Cediranib + Crizotinib; first compound 0.4 µM): 1.34
- relative viability (Cediranib + Crizotinib; first compound 4 µM): 0.999
- relative viability (Cediranib + Foretinib; first compound 0.04 µM): 1.17
- relative viability (Cediranib + Foretinib; first compound 0.1265 µM): 1.2
- relative viability (Cediranib + Foretinib; first compound 0.4 µM): 1.04
- relative viability (Cediranib + Foretinib; first compound 4 µM): 0.879

Cell Line: BEN
- relative viability (Cediranib + Crizotinib; first compound 0.04 µM): 1.19
- relative viability (Cediranib + Crizotinib; first compound 0.1265 µM): 0.662
- relative viability (Cediranib + Crizotinib; first compound 0.4 µM): 0.971
- relative viability (Cediranib + Crizotinib; first compound 1.265 µM): 0.824
- relative viability (Cediranib + Crizotinib; first compound 4 µM): 0.816
- relative viability (Cediranib + Navitoclax; first compound 0.04 µM): 0.0686
- relative viability (Cediranib + Navitoclax; first compound 0.1265 µM): 0.0663
- relative viability (Cediranib + Navitoclax; first compound 0.4 µM): 0.0683
- relative viability (Cediranib + Navitoclax; first compound 1.265 µM): 0.0702
- relative viability (Cediranib + Navitoclax; first compound 4 µM): 0.0649
- relative viability (Decitabine + Trametinib; first compound 0.04 µM): 1.1
- relative viability (Decitabine + Trametinib; first compound 0.1265 µM): 0.947
- relative viability (Decitabine + Trametinib; first compound 0.4 µM): 0.772
- relative viability (Decitabine + Trametinib; first compound 1.265 µM): 0.558
- relative viability (Decitabine + Trametinib; first compound 4 µM): 0.622
- relative viability (Cediranib + Foretinib; first compound 0.04 µM): 0.745
- relative viability (Cediranib + Foretinib; first compound 0.4 µM): 0.707
- relative viability (Cediranib + Foretinib; first compound 1.265 µM): 0.344
- relative viability (Cediranib + Foretinib; first compound 4 µM): 0.682

Cell Line: CAL-12T
- relative viability (Cediranib + Crizotinib; first compound 0.04 µM): 0.855
- relative viability (Cediranib + Crizotinib; first compound 0.1265 µM): 0.639
- relative viability (Cediranib + Crizotinib; first compound 0.4 µM): 0.661
- relative viability (Cediranib + Crizotinib; first compound 1.265 µM): 0.638
- relative viability (Cediranib + Crizotinib; first compound 4 µM): 0.62
- relative viability (Cediranib + Navitoclax; first compound 0.04 µM): 1.33
- relative viability (Cediranib + Navitoclax; first compound 0.1265 µM): 1.33
- relative viability (Cediranib + Navitoclax; first compound 0.4 µM): 1.37
- relative viability (Cediranib + Navitoclax; first compound 1.265 µM): 1.27
- relative viability (Cediranib + Navitoclax; first compound 4 µM): 1.34
- relative viability (Decitabine + Trametinib; first compound 0.04 µM): 0.303
- relative viability (Decitabine + Trametinib; first compound 0.1265 µM): 0.361
- relative viability (Decitabine + Trametinib; first compound 0.4 µM): 0.217
- relative viability (Decitabine + Trametinib; first compound 1.265 µM): 0.265
- relative viability (Decitabine + Trametinib; first compound 4 µM): 0.294
- relative viability (Cediranib + Foretinib; first compound 0.04 µM): 1.1
- relative viability (Cediranib + Foretinib; first compound 0.1265 µM): 1.02
- relative viability (Cediranib + Foretinib; first compound 0.4 µM): 1.09
- relative viability (Cediranib + Foretinib; first compound 1.265 µM): 1.12
- relative viability (Cediranib + Foretinib; first compound 4 µM): 1.2

Cell Line: COR-L23
- relative viability (Cediranib + Crizotinib; first compound 0.04 µM): 0.696
- relative viability (Cediranib + Crizotinib; first compound 0.1265 µM): 0.749
- relative viability (Cediranib + Crizotinib; first compound 0.4 µM): 0.654
- relative viability (Cediranib + Crizotinib; first compound 1.265 µM): 0.703
- relative viability (Cediranib + Crizotinib; first compound 4 µM): 0.68
- relative viability (Cediranib + Navitoclax; first compound 0.04 µM): 0.966
- relative viability (Cediranib + Navitoclax; first compound 0.1265 µM): 1.14
- relative viability (Cediranib + Navitoclax; first compound 0.4 µM): 0.893
- relative viability (Cediranib + Navitoclax; first compound 1.265 µM): 0.922
- relative viability (Cediranib + Navitoclax; first compound 4 µM): 1.03
- relative viability (Decitabine + Trametinib; first compound 0.04 µM): 0.374
- relative viability (Decitabine + Trametinib; first compound 0.1265 µM): 0.452
- relative viability (Decitabine + Trametinib; first compound 0.4 µM): 0.321
- relative viability (Decitabine + Trametinib; first compound 1.265 µM): 0.219
- relative viability (Decitabine + Trametinib; first compound 4 µM): 0.23
- relative viability (Cediranib + Foretinib; first compound 0.04 µM): 0.943
- relative viability (Cediranib + Foretinib; first compound 0.1265 µM): 0.938
- relative viability (Cediranib + Foretinib; first compound 0.4 µM): 0.916
- relative viability (Cediranib + Foretinib; first compound 1.265 µM): 1.05
- relative viability (Cediranib + Foretinib; first compound 4 µM): 1.09

Cell Line: COR-L 105
- relative viability (Cediranib + Crizotinib; first compound 0.1265 µM): 0.842
- relative viability (Cediranib + Crizotinib; first compound 0.4 µM): 0.832
- relative viability (Cediranib + Crizotinib; first compound 1.265 µM): 0.716
- relative viability (Cediranib + Crizotinib; first compound 4 µM): 0.695
- relative viability (Cediranib + Navitoclax; first compound 0.1265 µM): 0.842
- relative viability (Cediranib + Navitoclax; first compound 0.4 µM): 0.733
- relative viability (Cediranib + Navitoclax; first compound 1.265 µM): 0.756
- relative viability (Cediranib + Navitoclax; first compound 4 µM): 0.693
- relative viability (Decitabine + Trametinib; first compound 0.04 µM): 0.411
- relative viability (Decitabine + Trametinib; first compound 0.1265 µM): 0.461
- relative viability (Decitabine + Trametinib; first compound 0.4 µM): 0.451
- relative viability (Decitabine + Trametinib; first compound 1.265 µM): 0.429
- relative viability (Decitabine + Trametinib; first compound 4 µM): 0.383
- relative viability (Cediranib + Foretinib; first compound 0.04 µM): 1.04
- relative viability (Cediranib + Foretinib; first compound 0.1265 µM): 1.38
- relative viability (Cediranib + Foretinib; first compound 0.4 µM): 0.931
- relative viability (Cediranib + Foretinib; first compound 1.265 µM): 0.904
- relative viability (Cediranib + Foretinib; first compound 4 µM): 1.22

Cell Line: Calu-6
- relative viability (Cediranib + Crizotinib; first compound 0.04 µM): 0.844
- relative viability (Cediranib + Crizotinib; first compound 0.1265 µM): 0.849
- relative viability (Cediranib + Crizotinib; first compound 0.4 µM): 0.81
- relative viability (Cediranib + Crizotinib; first compound 1.265 µM): 0.786
- relative viability (Cediranib + Crizotinib; first compound 4 µM): 0.602
- relative viability (Cediranib + Navitoclax; first compound 0.04 µM): 0.876
- relative viability (Cediranib + Navitoclax; first compound 0.1265 µM): 0.86
- relative viability (Cediranib + Navitoclax; first compound 0.4 µM): 0.898
- relative viability (Cediranib + Navitoclax; first compound 1.265 µM): 0.788
- relative viability (Cediranib + Navitoclax; first compound 4 µM): 0.819
- relative viability (Cediranib + Foretinib; first compound 0.04 µM): 0.921
- relative viability (Cediranib + Foretinib; first compound 0.1265 µM): 0.944
- relative viability (Cediranib + Foretinib; first compound 0.4 µM): 0.857
- relative viability (Cediranib + Foretinib; first compound 1.265 µM): 0.863
- relative viability (Cediranib + Foretinib; first compound 4 µM): 0.911

Cell Line: ChaGo-K-1
- relative viability (Cediranib + Crizotinib; first compound 0.04 µM): 1.08
- relative viability (Cediranib + Crizotinib; first compound 0.4 µM): 1.08
- relative viability (Cediranib + Crizotinib; first compound 1.265 µM): 1.14
- relative viability (Cediranib + Crizotinib; first compound 4 µM): 0.874
- relative viability (Cediranib + Navitoclax; first compound 0.04 µM): 1.02
- relative viability (Cediranib + Navitoclax; first compound 0.4 µM): 0.952
- relative viability (Cediranib + Navitoclax; first compound 1.265 µM): 1.23
- relative viability (Cediranib + Navitoclax; first compound 4 µM): 0.83
- relative viability (Decitabine + Trametinib; first compound 0.04 µM): 0.729
- relative viability (Decitabine + Trametinib; first compound 0.1265 µM): 0.628
- relative viability (Decitabine + Trametinib; first compound 0.4 µM): 0.5
- relative viability (Decitabine + Trametinib; first compound 1.265 µM): 0.434
- relative viability (Decitabine + Trametinib; first compound 4 µM): 0.62
- relative viability (Cediranib + Foretinib; first compound 0.04 µM): 0.921
- relative viability (Cediranib + Foretinib; first compound 0.1265 µM): 0.833
- relative viability (Cediranib + Foretinib; first compound 0.4 µM): 0.837
- relative viability (Cediranib + Foretinib; first compound 1.265 µM): 0.897
- relative viability (Cediranib + Foretinib; first compound 4 µM): 1
